# T1: DR6 extracellular domain-FC chimera (Homo sapiens, UniProt O75509)
# T1 construct: wells of a microtiter plate were coated with 100 ng of a DR6 extracellular-Fc chimeric recombinant protein overnight
# T1 sequence (O75509 42-349 limits assumed): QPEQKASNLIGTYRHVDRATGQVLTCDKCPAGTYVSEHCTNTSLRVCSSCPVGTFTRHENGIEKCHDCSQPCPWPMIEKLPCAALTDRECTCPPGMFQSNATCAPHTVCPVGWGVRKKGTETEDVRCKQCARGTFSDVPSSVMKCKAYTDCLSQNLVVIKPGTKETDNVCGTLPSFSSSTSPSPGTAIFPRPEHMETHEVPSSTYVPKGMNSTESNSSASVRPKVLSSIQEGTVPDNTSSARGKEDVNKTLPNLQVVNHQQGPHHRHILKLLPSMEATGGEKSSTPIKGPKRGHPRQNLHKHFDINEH
# T2: DR6 in whole extracts of THP-1 cells (Homo sapiens, UniProt O75509)
# T2 construct: SDS detergent extracts of THP-1 cells were separated on SDS-PAGE and blotted onto PVD membranes; endogenous in cells; host or cells: THP-1 cells
# T2 sequence (O75509 42-655): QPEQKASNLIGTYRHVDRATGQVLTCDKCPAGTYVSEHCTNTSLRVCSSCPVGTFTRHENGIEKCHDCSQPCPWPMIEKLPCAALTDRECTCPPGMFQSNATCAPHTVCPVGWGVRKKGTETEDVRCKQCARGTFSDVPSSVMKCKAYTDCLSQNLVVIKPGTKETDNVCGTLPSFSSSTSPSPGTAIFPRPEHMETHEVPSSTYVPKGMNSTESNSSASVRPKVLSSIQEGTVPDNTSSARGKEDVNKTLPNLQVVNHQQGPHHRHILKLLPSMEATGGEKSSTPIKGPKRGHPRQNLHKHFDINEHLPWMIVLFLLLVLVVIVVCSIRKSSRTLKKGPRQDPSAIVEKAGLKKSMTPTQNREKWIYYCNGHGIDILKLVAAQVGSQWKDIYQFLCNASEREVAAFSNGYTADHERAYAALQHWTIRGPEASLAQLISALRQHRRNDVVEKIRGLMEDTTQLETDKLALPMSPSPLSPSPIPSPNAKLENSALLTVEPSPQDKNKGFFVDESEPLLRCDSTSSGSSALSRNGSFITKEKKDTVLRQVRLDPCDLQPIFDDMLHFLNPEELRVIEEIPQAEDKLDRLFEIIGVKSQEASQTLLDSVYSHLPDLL
# T3: death receptor-6 (DR6) (Homo sapiens, UniProt O75509)
# T3 sequence (O75509 42-655): T2 sequence (O75509 42-655)
# T4: DR6 extracellular-Fc chimeric recombinant protein (UniProt O75509 42-349, limits assumed)
# T4 construct: extracellular domain; also called DR6 extracellular domain-FC chimera; DR6-Fc; not shown: Fc part
# T4 sequence (looked up): T1 sequence (O75509 42-349 limits assumed)
# B1: Angiocidin (ligand, UniProt P55036 1-377, looked up)
# chain: MVLESTMVCVDNSEYMRNGDFLPTRLQAQQDAVNIVCHSKTRSNPENNVGLITLANDCEVLTTLTPDTGRILSKLHTVQPKGKITFCTGIRVAHLALKHRQGKNHKMRIIAFVGSPVEDNEKDLVKLAKRLKKEKVNVDIINFGEEEVNTEKLTAFVNTLNGKDGTGSHLVTVPPGPSLADALISSPILAGEGGAMLGLGASDFEFGVDPSADPELALALRVSMEEQRQRQEEEARRAAAASAAEAGIATTGTEDSDDALLKMTISQQEFGRTGLPDLSSMTEEEQIAYAMQMSLQGAEFGQAESADIDASSAMDTSEPAKEEDDYDVMQDPEFLQSVLENLPGVDPNNEAIRNAMGSLASQATKDGKKDKKEEDKK
# modifications: Alexa Fluor 488 label (flow cytometry) or biotin label (ELISA, blot); sites not stated; also used unlabeled as competitor
# notes: Labelled and unlabelled preparations are kept as one molecule
# B2: DR6-Fc: DR6 extracellular-Fc chimeric recombinant protein (protein)
# chain: T1 sequence (O75509 42-349 limits assumed)
# modifications: left off: a dimerising Fc or GST
# notes: DR6 extracellular-Fc chimeric recombinant protein
# B3: 5 mer (ALKHR peptide) (peptide)
# peptide: ALKHR
# notes: Five-residue peptide from angiocidin; also called Angio-pep; 5 mer peptide
# Assays:
# [1] = test system: three different leukemia cell lines; test: Cytokine upregulation in three leukemia cell lines; type: cell-based
# Method: Experiments were also performed comparing the leukemia cell differentiating activity of the 5 mer, the 20 mer and angiocidin.
# [2] = test system: THP-1 cells; test: Differentiation marker expression (CD14, CD54, CD36) in THP-1 cells, flow cytometry; type: cell-based; details: for Leukemia cell differentiating activity, comparison of 5 mer, 20 mer and angiocidin / Upregulation of CD54 in THP-1 leukemia cells: FIGS. 8-11; for Upregulation of CD54 in THP-1 cells: after 24 hours incubation, FIG. 8
# Method: FIG. 10 is an image showing the comparison between angiocidin, the 5 mer, and a 20 mer (F86-H105) […]; SEQ ID NO: 2 on the expression of CD14 and CD54. Briefly, THP-1 cells were grown in the presence of various concentrations of peptide overnight and then the cells were assayed by flow cytometry for expression of CD14 and CD54.
# FIG. 11 is an image showing the comparison between the 20 mer, 5 mer and angiocidin on the expression of CD14 and CD54 up-regulation in THP-1 cells and two primary leukemia cells. Cells were treated with peptide at 10 ug/ml for 12 hours and CD14 and CD54 were measured by flow cytometry.
# THP-1 cells were cultured in RPMI media for 24 hours containing no peptides or angiocidin or 2, 10 μg/ml of either angiocidin, 5 mer, peptide or a control peptide, r5 mer having the reverse sequence of the 5 mer. Marker expression was measured by flow cytometry.
# [3] = biological target: T1, DR6 extracellular domain-FC chimera; test: ELISA binding of biotinylated angiocidin to plate-coated DR6 extracellular-Fc chimeric recombinant protein; details: for Blocking of binding of biotinylated angiocidin to DR6: 1 μg/ml biotinylated angiocidin, 50 μg/ml 5 mer, 10 μg/ml anti-DR6 IgG or 50 μg/ml unlabeled angiocidin
# Method: (§1) The next experiment was performed to characterize the binding of DR6 with angiocidin. Briefly, wells of a microtiter plate were coated with 100 ng of a DR6 extracellular-Fc chimeric recombinant protein overnight. Wells were then washed in PBS and blocked with 1% BSA. Blocked wells were incubated with shaking with 200 μl of PBS containing various concentrations of biotinylated angiocidin for one hour. Wells were than washed and incubated with shaking with a 1:10,000 dilution of a 1 mg/ml solution of streptavidin-HRP in PBS. Wells were washed 3 times in PBS and bound streptavidin HRP was detected by incubation of the wells with 100 μl of 3,3′,5,5′-tetramethylbenzidine (TMB) with shaking for 5 min. Reactions were stopped by the addition of 50 μl of 1 M HCl and the color read in an ELISA reader at 450 nm.
# (§2) The next experiment was performed to further characterize the binding between DR6 and angiocidin. It was observed that the binding of angiocidin to DR6 was blocked with anti-DR6 IgG, 5 mer peptide, and unlabeled angiocidin. Wells contained either 1 μg/ml of biotinylated angiocidin alone or 50 μg/ml 5 mer, 10 μg/ml of anti-DR6 IgG or 50 μg/ml unlabeled angiocidin.
# [4] = test system: THP-1 cells; test: Binding of Alexa Fluor 488 labeled angiocidin to THP-1 cells, flow cytometry
# Method: Experiments were performed to evaluate the interaction between DR-6 and angiocidin. […] Briefly, THP-1 cells were plated in 6 well dishes in serum-free media. Cells were untreated or treated for 30 min at 37° with either 2.5 μg/ml of Angiocidin labeled with Alexa Fluor 488 (Angio-488), Angio-448+10 μg/ml control rabbit IgG, Angio-488+10 μg/ml rabbit Anti-DR6 IgG, Angio-488+10 μg/ml unlabeled Angiocidin. Cells were washed twice in PBS and the percent positive Angio-488 measured by flow cytometry.
# [5] = biological target: T2, DR6 in whole extracts of THP-1 cells; test: Blot overlay of biotinylated angiocidin on SDS extracts of THP-1 cells; type: binding; details: 0.1 mg/ml biotinylated angiocidin, one hour
# Method: Briefly, SDS detergent extracts of THP-1 cells were separated on SDS-PAGE and blotted onto PVD membranes. Membranes were washed in tris-buffered saline containing 0.1% Tween 20 detergent (TBS-T) and 1% BSA and incubated with 0.1 mg/ml of biotinylated angiocidin in the presence or absence of 10 μg/ml rabbit Anti-DR6 antibody. After incubation for one hour membranes were washed in TBS-T and incubated with 1:10,000 dilution of a 1 mg/ml solution of streptavidin HRP in PBS for 30 min. Membranes were then washed, treated with a chemiluminescent substrate for HRP and developed for chemiluminescence using X-ray film. In the panel on the right, recombinant DR6-Fc was used as the positive control.
# [6] = biological target: T3, death receptor-6 (DR6); test: Binding strength of DR6 for angiocidin compared with previously reported binding proteins
# [7] = test system: THP-I leukemia cells; test: Blocking DR6 on THP-I leukemia cells: effect on the differentiating activity of angiocidin; type: cell-based; details: mediated by DR6
# Description: Additionally, the DR6 binding domain of angiocidin is located in a 5 amino acid sequence (ALKHR; SEQ ID NO: 1) present near the N-terminal domain of angiocidin. Accordingly, the 5 mer (ALKHR; SEQ ID NO: 1) is a potentially non-toxic alternative treatment of AML
# [8] = biological target: T4, DR6 extracellular-Fc chimeric …; test: not stated (opening statement of Example 1)
# [9] = test system: THP-1 cells; test: Angiocidin-mediated up-regulation of CD14 in THP-1 cells, flow cytometry; type: cell-based; details: 2.5 μg/ml Angiocidin plus 10 μg/ml rabbit anti-DR6 IgG or 0.10 μg/ml DR6-Fc, 24 hours, 1% fetal calf serum
# Method: THP-1 cells were grown for 24 hours in RPMI containing 1% fetal calf serum (NT) or containing the following: 2.5 μg/ml Angiocidin, 0.10 μg/ml DR6-Fc, 2.5 μg/ml Angiocidin plus 0.10 μg/ml, DR6-Fc, 10 μg/ml rabbit IgG, 2.5 μg/ml Angiocidin plus 10 μg/ml rabbit IgG, 10 μg/ml rabbit anti-DR6 IgG, 2.5 μg/ml Angiocidin plus 10 μg/ml rabbit anti-DR6 IgG. Percent CD14 positive cells were measured by flow cytometry.
# [10] = biological target: T4, DR6 extracellular-Fc chimeric …; test: competition ELISA on coated DR6 extracellular domain-Fc, 50 ug/ml 5 mer against 1 ug/ml biotinylated angiocidin
# Method: as §1, with “nm. It was observed that angiocidin binds the extracellular domain of DR6 (DR6 extracellular domain-FC chimera) in vitro (FIG. 2).” for “nm.”
# as §2
molecule,measurement,setting,value
ALKHR [5 mer],Upregulation of cytokine panel,[1],upregulate a similar panel of cytokines
same,"Leukemia cell differentiating activity, comparison of 5 mer, 20 mer and angiocidin",[2],nearly identical leukemia cell differentiating activities
same,Upregulation of CD54 in THP-1 leukemia cells,[2],upregulate CD54
same,"Differentiation activity measured by upregulation of CD14, CD54, CD36","[2]; THP-1 cells, RPMI, 24 hours, 2, 10 μg/ml",mimics the differentiation activity of angiocidin
same,Upregulation of CD54 in THP-1 cells,[2],upregulate CD54
same,Blocking of binding of biotinylated angiocidin to DR6,[3],blocked
Angio-488: Angiocidin labeled with Alexa Fluor 488 [reference compound],Affinity for cell bound DR6 after labeling with Alexa Fluor 488,[4]; inferred from competition by unlabeled angiocidin,did not alter its affinity for cell bound DR6
"FCTGIRVAHLALKHRQGKNH [20 mer, 20 mer peptide of the anti-tumor domain of angiocidin]",Upregulation of cytokine panel,[1],upregulate a similar panel of cytokines
same,"Leukemia cell differentiating activity, comparison of 5 mer, 20 mer and angiocidin",[2],nearly identical leukemia cell differentiating activities
same,Upregulation of CD54 in THP-1 leukemia cells,[2],upregulate CD54
"angiocidin: protein originally isolated from lung carcinoma, receptor for thrombospondin-1, inhibitor of angiogenesis and tumor cell proliferation",Binding of angiocidin to DR6 in whole extracts of THP-1 cells,[5],binds to DR6 in whole extracts of THP-1 cells
same,Upregulation of cytokine panel,[1],upregulate a similar panel of cytokines
same,Binding strength of DR6 for angiocidin relative to other reported binding proteins and peptides,[6],more than 100 times
same,Differentiating activity on THP-I leukemia cells,[7],transforms THP-I leukemia cells into normal macrophage-like cells
same,Inhibition of binding of Angio-488 to THP-1 cells (percent positive Angio-488),"[4]; 2.5 μg/ml Angio-488 plus 10 μg/ml competitor, 30 min at 37°, serum-free media",competed with the binding of Angio-488
same,"Leukemia cell differentiating activity, comparison of 5 mer, 20 mer and angiocidin",[2],nearly identical leukemia cell differentiating activities
same,Upregulation of CD54 in THP-1 leukemia cells,[2],upregulate CD54
same,Upregulation of CD54 in THP-1 cells,[2],upregulate CD54
same,Binding of biotinylated angiocidin to the extracellular domain of DR6,"[3]; 100 ng DR6-Fc coated, various concentrations, one hour, read at 450 nm",binds the extracellular domain of DR6
same,Blocking of binding of biotinylated angiocidin to DR6,[3],blocked
B1,fold stronger binding than the other binding proteins and peptides previously reported for angiocidin,[8],> 100 times
B2,Inhibition of angiocidin-mediated upregulation of CD14 (percent CD14 positive cells),[9],inhibit the angiocidin-mediated upregulation of CD14
B3,binding result,[10],binds

# From patent US20170174734A1, “DR6 Receptor Mediates the Leukemia Differentiation Activity of Angiocidin: A Potent Anti-Tumor Peptide” (Temple University-Of The Commonwealth System of Higher …, priority 2014, published 2017)
